One may read the IC50 as the concentration needed to halve the response being measured.

Molecules are shown by their SMILES.

This passage reports IC50 results from patent US8785457B2 (Cellzome Limited, priority 2009, dated 2014).

In the first experiment the target is T1, PI3 Kbeta (PI3 Kb) (Homo sapiens, UniProt P42338).
T1 construct: endogenous in cells; host or cells: cell lysate
T1 sequence (P42338 whole entry): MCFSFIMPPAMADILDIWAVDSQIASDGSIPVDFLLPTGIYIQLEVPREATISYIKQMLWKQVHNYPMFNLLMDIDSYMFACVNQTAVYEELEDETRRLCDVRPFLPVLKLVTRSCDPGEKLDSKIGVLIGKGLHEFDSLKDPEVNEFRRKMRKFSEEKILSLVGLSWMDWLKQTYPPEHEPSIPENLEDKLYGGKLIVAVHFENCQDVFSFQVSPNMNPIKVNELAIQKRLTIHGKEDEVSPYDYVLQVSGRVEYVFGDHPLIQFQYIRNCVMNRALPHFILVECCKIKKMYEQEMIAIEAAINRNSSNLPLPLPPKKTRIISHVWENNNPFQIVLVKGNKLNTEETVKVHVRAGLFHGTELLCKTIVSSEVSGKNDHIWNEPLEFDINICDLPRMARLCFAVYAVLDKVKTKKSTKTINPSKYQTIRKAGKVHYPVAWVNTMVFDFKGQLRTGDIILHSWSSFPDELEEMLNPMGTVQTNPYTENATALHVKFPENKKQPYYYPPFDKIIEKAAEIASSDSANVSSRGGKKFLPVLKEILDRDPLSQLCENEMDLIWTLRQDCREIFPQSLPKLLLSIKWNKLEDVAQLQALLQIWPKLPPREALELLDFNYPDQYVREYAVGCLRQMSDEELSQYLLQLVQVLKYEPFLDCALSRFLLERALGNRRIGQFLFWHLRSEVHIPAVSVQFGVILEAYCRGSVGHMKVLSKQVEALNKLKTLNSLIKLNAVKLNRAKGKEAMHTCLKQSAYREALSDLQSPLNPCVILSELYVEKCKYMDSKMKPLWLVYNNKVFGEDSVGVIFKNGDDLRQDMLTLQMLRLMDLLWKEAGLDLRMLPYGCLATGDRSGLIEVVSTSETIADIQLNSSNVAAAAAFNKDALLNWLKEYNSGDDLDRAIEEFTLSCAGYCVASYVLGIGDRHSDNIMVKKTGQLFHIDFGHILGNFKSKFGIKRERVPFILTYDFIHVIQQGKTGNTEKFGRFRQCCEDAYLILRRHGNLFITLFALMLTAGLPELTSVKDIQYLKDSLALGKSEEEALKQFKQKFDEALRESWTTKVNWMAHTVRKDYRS
T1 sequence (P27986 whole entry partner): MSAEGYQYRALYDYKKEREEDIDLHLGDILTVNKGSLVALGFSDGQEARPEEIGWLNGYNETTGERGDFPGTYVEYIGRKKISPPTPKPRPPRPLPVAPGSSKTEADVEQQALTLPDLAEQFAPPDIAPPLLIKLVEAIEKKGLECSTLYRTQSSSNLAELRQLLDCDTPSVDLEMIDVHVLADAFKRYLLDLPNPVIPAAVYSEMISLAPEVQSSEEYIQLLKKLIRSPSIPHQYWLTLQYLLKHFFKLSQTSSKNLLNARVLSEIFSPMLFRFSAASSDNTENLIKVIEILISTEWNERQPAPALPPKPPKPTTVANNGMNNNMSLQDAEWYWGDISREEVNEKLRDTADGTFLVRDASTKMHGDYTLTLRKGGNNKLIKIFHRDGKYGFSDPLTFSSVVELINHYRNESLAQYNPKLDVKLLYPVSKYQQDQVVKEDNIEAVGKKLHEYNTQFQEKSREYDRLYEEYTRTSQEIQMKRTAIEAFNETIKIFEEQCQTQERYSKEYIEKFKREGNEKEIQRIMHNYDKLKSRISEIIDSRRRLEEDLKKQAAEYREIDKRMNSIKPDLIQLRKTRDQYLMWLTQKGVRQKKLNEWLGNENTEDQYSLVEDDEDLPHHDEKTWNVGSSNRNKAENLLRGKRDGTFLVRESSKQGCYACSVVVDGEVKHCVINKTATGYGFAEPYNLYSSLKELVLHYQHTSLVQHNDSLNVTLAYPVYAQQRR
Briefly: kinobeads assay, PI3Kbeta. It is filed as binding. To be noted: kinobeads assay, Table 6; read-out: Inhibition values (IC50) PI3Kb. In outline: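 IC50s are fitted to per-kinase dose-response curves. Kinases retained on phenylmorpholin-chromen affinity beads are read by multiplexed immunodetection after elution. Compound, added at a range of concentrations straight into cell lysate, competes for this bead capture.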
On to `CCNC(=O)Nc1ccc(-c2nc3c(c(N4CCOC[C@@H]4C)n2)CN(C(=O)c2ccc(F)cc2)C3)cc1` [Example 19, (S)-1-ethyl-3-(4-(6-(4-fluorobenzoyl)-4-(3-methylmorpholino)-6,7-dihydro-5H-pyrrolo[3,4-d]pyrimidin-2-yl)phenyl)urea], for which the IC50 was greater than 10 µM.

A further experiment has as its system S6RP serine-240/244 phosphorylation. Briefly: In vitro Phospho-S6 cellular assay (pS6RP S240/244) in HEK293T/17 cells. The experiment is classed as cell-based. The conditions noted are these: Homo sapiens, 2 hours, read-out: pS6 IC50. From the text: Activation of mTOR signaling results in phosphorylation of several downstream targets. In cells, mTOR exists in two different protein complexes. The mTOR Complex-1 (mTORC1) phosphorylates and activates S6 Kinase 1 (S6K1) and S6 Kinase 2 (S6K2) (also known as p70S6K) which then phosphorylate S6 Ribosomal Protein (S6RP) (also known as RPS6)3. S6RP is phosphorylated on serine 235, serine 236, serine 240 and serine 244 by both pS6K1 and pS6K2. The mTOR Complex-2 (mTORC2) phosphorylates AKT on serine 473 which activates the AKT signaling pathway.
The assay measures a test compound's inhibition of S6RP serine-240/244 phosphorylation and inhibition of Akt serine-473 phosphorylation in human embryonic kidney derived HEK293T/17 cells (ATCC CRL-11268).
The HEK293T/17 cell line is maintained in DMEM media (Invitrogen catalogue number 41965-039) supplemented with 10% FCS at 37° C. in a 5% CO2 humidified incubator.
Cells are seeded in 96-well plates at 40,000 cells/well (pS6RP S240/244 assay) or 80,000 cells/well (pAkt S473 assay) in 90 μl growth media (DMEM, 2% FCS). Plates are incubated for 1 hour in a humidified incubator to allow the cells to adhere. Cells are treated with 8 concentrations of test compounds or DMSO alone for controls (final DMSO concentration 0.1%) and incubated at 37° C. for 2 hours. Then 20 μl of 5× concentrated lysis buffer (750 mM NaCl, 100 mM Tris pH7.4, 5 mM ADTA, 5 mM EGTA, 5% Triton X-100) is added, plates are sealed and incubated for 15 minutes at 4° C. with gentle shaking. After cell lysis, 25 μl cell lysate is transferred to a MesoScale plate coated with an antibody to pS6RP Ser240/244 (MesoScale Discovery K150DGD-3) or an antibody to pAkt Ser 473 (MesoScale Discovery K151DGD-3). Plates have been blocked before by incubation with 150 μl MesoScale Discovery Blocking Solution-A for 1 hour at room temperature followed by washing with 150 μl 1× Tris wash buffer per well. After the transfer of the cell lysate to the MSD plate, the pS6RP (or pAkt) protein is captured on the coated antibody by incubation at room temperature for 1 hour with gentle shaking. After the capture step the plate is washed three times with 150 μl of 1× Tris wash buffer per well. Then 25 μl detection antibody conjugated with a Sulfo-Tag is added and incubated for 1 hour at room temperature with gentle shaking. Subsequently the antibody solution is removed and the plate is washed 3 times with 150 μl×Tris wash buffer per well and 150 μl Read buffer is added. The plates are analysed on a MSD 2400 Plate Reader (MesoScale Discovery). Data analysis is performed using nonlinear regression for a sigmoidal dose-response with a variable slope.
As for `CCNC(=O)Nc1ccc(-c2nc3c(c(N4CCOC[C@@H]4C)n2)CN(C=O)C3)cc1` [Example 8, (S)-1-ethyl-3-(4-(6-formyl-4-(3-methylmorpholino)-6,7-dihydro-5H-pyrrolo[3,4-d]pyrimidin-2-yl)phenyl)urea], the IC50 came to 0.289 µM.
Still for that read-out and setting: for `C[C@H]1COCCN1c1nc(-c2ccc(NC(=O)NC3CC3)cc2)nc2c1CNCC2` [Example 11, (S)-1-cyclopropyl-3-(4-(4-(3-methylmorpholino)-5,6,7,8-tetrahydropyrido[4,3-d]pyrimidin-2-yl)phenyl)urea] the value was 0.588 µM; for `CCNC(=O)Nc1ccc(-c2nc3c(c(N4CCOC[C@@H]4C)n2)CNCC3)cc1` [Example 12, (S)-1-ethyl-3-(4-(4-(3-methylmorpholino)-5,6,7,8-tetrahydropyrido[4,3-d]pyrimidin-2-yl)phenyl)urea], 0.839 µM.
As to `CCNC(=O)Nc1ccc(-c2nc3c(c(N4CCOC[C@@H]4C)n2)CCNC3)cc1` [Example 13, (S)-1-ethyl-3-(4-(4-(3-methylmorpholino)-5,6,7,8-tetrahydropyrido[3,4-d]pyrimidin-2yl)phenyl)urea], the IC50 was 0.24 µM.
As for `C[C@H]1COCCN1c1nc(-c2ccc(NC(=O)NC3CC3)cc2)nc2c1CCNC2` [Example 15, (S)-1-cyclopropyl-3-(4-(4-(3-methylmorpholino)-5,6,7,8-tetrahydropyrido[3,4-d]pyrimidin-2-yl)phenyl)urea], the IC50 is 0.238 µM.
The same measure, in the same setting: the figure for `CNC(=O)Nc1ccc(-c2nc3c(c(N4CCOC[C@@H]4C)n2)CCNC3)cc1` [Example 16, (S)-1-methyl-3-(4-(4-(3-methylmorpholino)-5,6,7,8-tetrahydropyrido[3,4-d]pyrimidin-2-yl)phenyl)urea] is 0.297 µM; for `C[C@H]1COCCN1c1nc(-c2ccc(NC(=O)NC3CC3)cc2)nc2c1CN(C(=O)C1CC1)C2` [Example 17, (S)-1-(4-(6-(cyclopropanecarbonyl)-4-(3-methylmorpholino)-6,7-dihydro-5H-pyrrolo[3,4-d]pyrimidin-2-yl)phenyl)-3-cyclopropylurea] it is 0.142 µM.
Still for that read-out and setting: for `CCNC(=O)Nc1ccc(-c2nc3c(c(N4CCOC[C@@H]4C)n2)CN(C(C)=O)C3)cc1` [Example 18, (S)-1-(4-(6-acetyl-4-(3-methylmorpholino)-6,7-dihydro-5H-pyrrolo[3,4-d]pyrimidin-2-yl)phenyl)-3-ethylurea] the value was 0.443 µM; for `CCNC(=O)Nc1ccc(-c2nc3c(c(N4CCOC[C@@H]4C)n2)CN(C(=O)c2ccc(F)cc2)C3)cc1` [Example 19, (S)-1-ethyl-3-(4-(6-(4-fluorobenzoyl)-4-(3-methylmorpholino)-6,7-dihydro-5H-pyrrolo[3,4-d]pyrimidin-2-yl)phenyl)urea], 0.135 µM; for `CC(=O)N1Cc2nc(-c3ccc(NC(=O)NC4CC4)cc3)nc(N3CCOC[C@@H]3C)c2C1` [Example 20, (S)-1-(4-(6-acetyl-4-(3-methylmorpholino)-6,7-dihydro-5H-pyrrolo[3,4-d]pyrimidin-2-yl)phenyl)-3-cyclopropylurea], 0.33 µM.
The same measure, in the same setting: the figure for `CCNC(=O)Nc1ccc(-c2nc3c(c(N4CCOC[C@@H]4C)n2)CN(C(=O)C(C)(C)C)C3)cc1` [Example 22, (S)-1-ethyl-3-(4-(4-(3-methylmorpholino)-6-pivaloyl-6,7-dihydro-5H-pyrrolo[3,4-d]pyrimidin-2-yl)phenyl)urea] is 0.087 µM.
In the case of `CCNC(=O)Nc1ccc(-c2nc3c(c(N4CCOC[C@@H]4C)n2)CN(C)C3)cc1` [Example 26, (S)-1-ethyl-3-(4-(6-methyl-4-(3-methylmorpholino)-6,7-dihydro-5H-pyrrolo[3,4-d]pyrimidin-2-yl)phenyl)urea], the IC50 came out at 0.196 µM.
Still for that read-out and setting: for `C[C@H]1COCCN1c1nc(-c2ccc(NC(=O)NC3CC3)cc2)nc2c1CN(CC1CC1)C2` [Example 30] the value was 0.17 µM; for `CCNC(=O)Nc1ccc(-c2nc3c(c(N4CCOC[C@@H]4C)n2)CN(S(C)(=O)=O)C3)cc1` [Example 32, (S)-1-ethyl-3-(4-(4-(3-methylmorpholino)-6-(methylsulfonyl)-6,7-dihydro-5H-pyrrolo[3,4-d]pyrimidin-2-yl)phenyl)urea], 0.182 µM.
The same measure, in the same setting: the figure for `CCNC(=O)N1Cc2nc(-c3ccc(NC(=O)NC4CC4)cc3)nc(N3CCOC[C@@H]3C)c2C1` [Example 33, (S)-2-(4-(3-cyclopropylureido)phenyl)-N-ethyl-4-(3-methylmorpholino)-5H-pyrrolo[3,4-d]pyrimidine-6(7H)-carboxamide] is 0.379 µM.
Still for that read-out and setting: the figure for `CCN1Cc2nc(-c3ccc(NC(=O)NC4CC4)cc3)nc(N3CCOC[C@@H]3C)c2C1` [Example 36, (S)-1-cyclopropyl-3-(4-(6-ethyl-4-(3-methylmorpholino)-6,7-dihydro-5H-pyrrolo[3,4-d]pyrimidin-2-yl)phenyl)urea] is 0.113 µM.
In the case of `C[C@H]1COCCN1c1nc(-c2ccc(NC(=O)NC3CC3)cc2)nc2c1CN(C)C2` [Example 38, (S)-1-cyclopropyl-3-(4-(6-methyl-4-(3-methylmorpholino)-6,7-dihydro-5H-pyrrolo[3,4-d]pyrimidin-2-yl)phenyl)urea], the IC50 was 0.17 µM.
Still for that read-out and setting: the figure for `CCNC(=O)Nc1ccc(-c2nc3c(c(N4CCOC[C@@H]4C)n2)CN(CC)C3)cc1` [Example 39, (S)-1-ethyl-3-(4-(6-ethyl-4-(3-methylmorpholino)-6,7-dihydro-5H-pyrrolo[3,4-d]pyrimidin-2-yl)phenyl)urea] is 0.14 µM; for `CC(C)C(=O)N1Cc2nc(-c3ccc(NC(=O)NC4CC4)cc3)nc(N3CCOC[C@@H]3C)c2C1` [Example 44, (S)-1-cyclopropyl-3-(4-(6-isobutyryl-4-(3-methylmorpholino)-6,7-dihydro-5H-pyrrolo[3,4-d]pyrimidin-2-yl)phenyl)urea] it is 0.205 µM.
The same measure, in the same setting: the figure for `CC(C)N1Cc2nc(-c3ccc(NC(=O)NC4CC4)cc3)nc(N3CCOC[C@@H]3C)c2C1` [Example 46, (S)-1-cyclopropyl-3-(4-(6-isopropyl-4-(3-methylmorpholino)-6,7-dihydro-5H-pyrrolo[3,4-d]pyrimidin-2-yl)phenyl)urea] is 0.147 µM.
With `CNC(=O)Nc1ccc(-c2nc3c(c(N4CCOC[C@@H]4C)n2)CN(CC2CC2)C3)cc1` [Example 47, (S)-1-(4-(6-(cyclopropylmethyl)-4-(3-methylmorpholino)-6,7-dihydro-5H-pyrrolo[3,4-d]pyrimidin-2-yl)phenyl)-3-methylurea], the IC50 stood at 0.218 µM.
Still for that read-out and setting: for `C[C@H]1COCCN1c1nc(-c2ccc(NC(N)=O)cc2)nc2c1CN(CC1CC1)C2` [Example 48, (S)-1-(4-(6-(cyclopropylmethyl)-4-(3-methylmorpholino)-6,7-dihydro-5H-pyrrolo[3,4-d]pyrimidin-2-yl)phenyl)urea] the value was 0.698 µM.
The same measure, in the same setting: the figure for `CCCNC(=O)Nc1ccc(-c2nc3c(c(N4CCOC[C@@H]4C)n2)CN(CC2CC2)C3)cc1` [Example 49, (S)-1-(4-(6-(cyclopropylmethyl)-4-(3-methylmorpholino)-6,7-dihydro-5H-pyrrolo[3,4-d]pyrimidin-2-yl)phenyl)-3-propylurea] is 0.306 µM; for `CC(C)NC(=O)Nc1ccc(-c2nc3c(c(N4CCOC[C@@H]4C)n2)CN(CC2CC2)C3)cc1` [Example 50, (S)-1-(4-(6-(cyclopropylmethyl)-4-(3-methylmorpholino)-6,7-dihydro-5H-pyrrolo[3,4-d]pyrimidin-2-yl)phenyl)-3-isopropylurea] it is 0.423 µM; for `C[C@H]1COCCN1c1nc(-c2ccc(NC(=O)NC3CCC3)cc2)nc2c1CN(C)C2` [Example 55, (S)-1-cyclobutyl-3-(4-(6-methyl-4-(3-methylmorpholino)-6,7-dihydro-5H-pyrrolo[3,4-d]pyrimidin-2-yl)phenyl)urea] it is 0.435 µM.
Same read-out and setting: the figure for `COC(=O)N1Cc2nc(-c3ccc(NC(=O)NCCF)cc3F)nc(N3CCOCC3)c2C1` [Example 169, Methyl 2-(2-fluoro-4-(3-(2-fluoroethyl)ureido)phenyl)-4-morpholino-5H-pyrrolo[3,4-d]pyrimidine-6(7H)-carboxylate] is 0.143 µM.
